# The supplement of paper PMC10307832
# Compound: CC(C)C[C@H](NC(=O)[C@H](CCc1ccccc1)NC(=O)CN1CCOCC1)C(=O)N[C@@H](Cc1ccccc1)C(=O)N[C@@H](CC(C)C)C(=O)[C@@]1(C)CO1 [Carfilzomib] + N=C(N)NC(=N)NCCc1ccccc1 [Phenformin] (partner 250 µM)
# Experiment: relative viability (nuclei count vs DMSO), 5 days (fraction); higher = more cells survive
# Details: first compound 0.1 µM
# Method in brief: (§1)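 Lung cancer cell lines in 1536-well plates got either a single drug or a fixed anchor-drug dose together with five library-drug doses (not always all listed) in √10 steps, by pin tool, on the day after seeding. Nuclei were counted after 5 days, and relative viability is the treated-to-vehicle ratio of nuclei counts. Values are medians of duplicate plates.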
row,Cell Line,relative viability
1,EMC-BAC-2,0.199
2,EPLC-272H,0.038
3,H3255,0.321
4,HARA,0.0629
5,HCC-15,0.1
6,HCC-44,0.122
7,HCC-78,0.235
8,HCC-366,0.17
9,HCC-827,0.279
10,HOP-62,0.0898
11,LC-2-ad,0.181
12,LCLC-97TM1,0.147
13,LCLC-103H,0.17
14,LK-2,0.182
15,NCI-H358,0.0694
16,NCI-H522,0.401
17,NCI-H596,0.25
18,NCI-H1395,0.314
19,NCI-H1563,0.48
20,NCI-H1623,0.414
21,NCI-H1792,0.0821
22,NCI-H1944,0.139
23,NCI-H2170,0.232
24,NCI-H2342,0.352
25,SK-MES-1,0.146
26,SW 900,0.138

# Compound: CC(C)C[C@H](NC(=O)[C@H](CCc1ccccc1)NC(=O)CN1CCOCC1)C(=O)N[C@@H](Cc1ccccc1)C(=O)N[C@@H](CC(C)C)C(=O)[C@@]1(C)CO1 [Carfilzomib] + COc1cc2c(Oc3ccc(NC(=O)C4(C(=O)Nc5ccc(F)cc5)CC4)cc3F)ccnc2cc1OCCCN1CCOCC1 [Foretinib] (partner 0.25 µM)
# Experiment: as above
# Details: first compound 0.001 µM
# Method in brief: as §1
row,Cell Line,relative viability
1,201T,1.13
2,A549,0.86
3,A-427,1.02
4,ABC-1,0.912
5,BEN,0.575
6,CAL-12T,1.08
7,COR-L23,0.991
8,COR-L 105,1.31
9,Calu-6,0.889
10,ChaGo-K-1,0.941
11,EBC-1,0.0996
12,EKVX,0.51
13,EMC-BAC-2,1.02
14,EPLC-272H,0.901
15,H3255,0.876
16,HARA,0.93
17,HCC-15,0.96
18,HCC-78,0.541
19,HCC-366,0.933

row,Cell Line,relative viability
1,HCC-827,1.09
2,HOP-62,1.12
3,IA-LM,1.22
4,LC-2-ad,0.881
5,LCLC-97TM1,0.958
6,LCLC-103H,0.772
7,LK-2,1.24
8,NCI-H358,0.688
9,NCI-H596,0.813
10,NCI-H1299,1.03
11,NCI-H1395,0.981
12,NCI-H1563,0.927
13,NCI-H1623,0.838
14,NCI-H1944,0.932
15,NCI-H2170,1.05
16,NCI-H2342,1.04
17,SK-MES-1,0.851
18,SW 900,1.01

# Same assay, conditions: first compound 0.003162 µM
row,Cell Line,relative viability
1,201T,1.14
2,A549,0.966
3,A-427,1.13
4,ABC-1,0.815
5,BEN,0.69
6,CAL-12T,1.1
7,COR-L23,1.16
8,COR-L 105,1.13
9,Calu-6,0.933
10,ChaGo-K-1,0.991
11,EBC-1,0.124
12,EKVX,0.945
13,EMC-BAC-2,1.08
14,EPLC-272H,0.764
15,H3255,0.952
16,HARA,0.963
17,HCC-15,1.19
18,HCC-78,0.576
19,HCC-366,0.963

row,Cell Line,relative viability
1,HCC-827,1.06
2,HOP-62,1.13
3,IA-LM,1.23
4,LC-2-ad,1.01
5,LCLC-97TM1,0.874
6,LCLC-103H,0.714
7,LK-2,1.25
8,NCI-H358,1.01
9,NCI-H596,0.84
10,NCI-H1299,1.02
11,NCI-H1395,1.07
12,NCI-H1563,1.08
13,NCI-H1623,0.906
14,NCI-H1703,0.421
15,NCI-H1944,0.955
16,NCI-H2170,1.02
17,NCI-H2342,1.06
18,SK-MES-1,0.954
19,SW 900,0.999

# Same assay, conditions: first compound 0.01 µM
row,Cell Line,relative viability
1,201T,1.16
2,A549,0.946
3,A-427,1.09
4,ABC-1,0.292
5,BEN,0.577
6,CAL-12T,1.06
7,COR-L23,0.996
8,COR-L 105,1.05
9,Calu-6,0.842
10,ChaGo-K-1,0.859
11,EBC-1,0.121
12,EKVX,1.24
13,EMC-BAC-2,1.12
14,EPLC-272H,0.601
15,H3255,0.939
16,HARA,1.1
17,HCC-15,1.12
18,HCC-78,0.581
19,HCC-366,0.916

row,Cell Line,relative viability
1,HCC-827,1.08
2,HOP-62,0.938
3,IA-LM,0.899
4,LC-2-ad,1.08
5,LCLC-97TM1,0.893
6,LCLC-103H,0.814
7,LK-2,1.42
8,NCI-H358,0.63
9,NCI-H596,0.812
10,NCI-H1299,1.14
11,NCI-H1395,0.954
12,NCI-H1563,0.968
13,NCI-H1623,1.14
14,NCI-H1703,0.231
15,NCI-H1944,0.949
16,NCI-H2170,1.06
17,NCI-H2342,1.08
18,SK-MES-1,0.918
19,SW 900,0.315

# Same assay, conditions: first compound 0.03162 µM
row,Cell Line,relative viability
1,201T,1.02
2,A549,0.0732
3,A-427,0.474
4,ABC-1,0.17
5,BEN,0.577
6,CAL-12T,0.807
7,COR-L23,0.196
8,COR-L 105,0.779
9,Calu-6,0.127
10,ChaGo-K-1,0.62
11,EBC-1,0.0586
12,EKVX,0.309
13,EMC-BAC-2,0.975
14,EPLC-272H,0.0828
15,H3255,0.815
16,HARA,0.0689
